The results in this text go back to patent US20250127723A1, “PHARMACEUTICAL COMPOSITION COMPRISING LARGE PHYSIOLOGICALLY ACTIVE SUBSTANCE AND EXCIPIENT” (priority 2021, published 2025).

Counter-ions that a name gives are not always drawn. Bridge positions count the residues as written; N and C are the ends. Square brackets hold non-standard residues; d marks the D form. Side chains are listed from the residue outwards. Ends that are not written are not given here. Lys‑B1 = not defined here; EG2 = not defined here; Aib = CC(C)(N)C(=O)O

The nature of data set [1]: Body weight change 24 hours after single oral administration of amylin derivatives. In kind it is in vivo. The note with it: mice, bile acid absorption accelerator formulation. As to the method:
After a single oral administration of a formulation using a combination of a large physiologically active substance and excipients to mice, body weight changes were confirmed for 24 hours.

The subject of another data set is Caco-2 cells. As to the method:
The cytotoxicity of excipients was evaluated using Caco-2 cells using the following method. First, to check the amount of intracellular accumulation, Caco-2 cells were distributed in a 96-well plate at 1×10^5 per well and cultured in a CO2 incubator at a temperature of 37° C. The culture solution from each well is removed and replacement by a new culture medium is performed. After that, […] of the prepared excipient was added and this was cultured in a CO2 incubator at 37° C. After 2 hours, each well was treated with 100 µL of luciferase reagent (Promega, #G7571) and incubated at room temperature. After 10 minutes, the luminescence value of each well was measured. […] [formula]

The test system of data set [2] is Caco-2 cell monolayer. The format is in vitro ADME. As to the method: First, to form a Caco-2 cell monolayer, 1.5×10^5 cells per well were dispensed in a 12-Transwell plate and this was cultured for 3 to 4 weeks under 37° C. CO2 conditions. For the first week, the culture medium was changed once every two days, and thereafter, the culture medium was changed every three days. In the experiment, samples between 3 and 4 weeks after seeding were used. To verify the formation of a cell monolayer, TEER values and Lucifer yellow values were measured; only cell monolayer membranes having a TEER value of 300 Ω·cm^2 or more and a measured transmittance of Lucifer yellow within 3% were used in the test. After washing the Transwell to be used for each test using transport media (HBSS), incubation was performed for 1 hour in a 37° C. CO2 incubator; then, 500 μL each of large physiologically active substance (50 μM) and bile acid derivatives (100 μM) were added to the apical side, and 1.5 mL of drug-free transport media was treated onto the basolateral side. Subsequently, incubation was performed for 2 hours in a 37° C. CO2 incubator.
[formula] • (*dCr-concentration of the permeated sample, dt-drug treatment time, Vr-basolateral volume, A-Transwell area, C0-initial applied drug concentration)

Data set [3] has as its system Caco-2 cell monolayer. In kind it is in vitro ADME. The method, then: Using the Caco-2 cell monolayer, changes in the permeability of markers for each permeation pathway due to excipients were evaluated using the following method. First, to form a Caco-2 cell monolayer, 1.5×10^5 cells per well were dispensed in a 12-Transwell plate and cultured for 3 to 4 weeks under 37° C. CO2 conditions. For the first week, the culture medium was changed once every two days, and thereafter, the culture medium was changed every three days. In the experiment, samples between 3 and 4 weeks after seeding were used. To verify the formation of a cell monolayer, TEER values and Lucifer yellow values were measured, and only cell monolayer membranes having a TEER value of 300 Ω·cm^2 or more and a measured transmittance of Lucifer yellow within 3% were used in the test. After the Transwells to be used for each test were washed using transport media (HBSS) and incubated in a 37° C. CO2 incubator for 1 hour, 500 μL of bile acid derivatives and permeability marker were added to the apical side, and 1.5 mL of drug-free transport media was treated onto the basolateral side, and incubation was performed for 2 hours in a 37° C. CO2 incubator thereafter. At this time, fluorescein isothiocyanate-dextran (FD4) was used as a paracellular marker, and metoprolol was used as a transcellular marker to confirm the change in permeability coefficient according to bile acid derivative treatment. […]
This is another data set of the same source.

For data set [4], the system named is monolayer membrane of Caco-2 cells. As to the kind of experiment: Tight junction openness by change in TEER value, Caco-2 monolayer. The format is cell-based. Conditions: apical treatment, 0-120 min, FIG. 2. The method, then:
First, to form a Caco-2 cell monolayer, 1.5×10^5 cells per well was dispensed in a 12-Transwell plate and cultured for 3 to 4 weeks under 37° C. CO2 conditions. For the first week, the culture medium was changed once every two days, and thereafter, the culture medium was changed every three days. In the experiment, samples between 3 and 4 weeks after seeding were used. To evaluate the degree of damage to the Caco-2 cell monolayer by excipients, the degree of cells cultured as a monolayer on a semi-permeable membrane was measured by the difference in electrical resistance between the apical side and the basolateral side. First, the Transwell to be used in each test is washed using a washing buffer (HBSS), replaced by culture medium, and equilibrated in a 37° C. CO2 incubator for 15 minutes. After adding 500 μL of the prepared excipient to the apical side and treating the basolateral side with 1.5 mL of culture medium containing no excipient, changes in TEER values were measured using a Millicell ERS-2 Voltohmmeter at each time point (0, 5, 15, 30, 45, 60, 90, 120 min) from the time of treatment.

Data set [5] can be described thus: Cmax after duodenal administration of Compounds 23 and 24. More on the design: species or system experimental rats. Conditions: rat, in vivo; rats, duodenum; CDC 68 mg/kg, PG 34 mg/kg; Compound 23 5.4 mg/kg, Compound 24 6.2 mg/kg. As to the method: A large physiologically active substance (Compound 24) was formulated by dissolving it in the corresponding vehicle (0.02% polysorbate 80 in 10 mM PBS (pH 7.4)) with the excipient composition shown in Table 6 above. After administering the above formulation to the duodenum of experimental rats, Cmax was compared. The corresponding results were compared with the results obtained by administering Compound 23, a large physiologically active substance without a biotin moiety, in the same formulation, and are shown in Table 7 below.

Data set [6] in a line: Weight loss, appetite suppression and anti-diabetic efficacy, oral Compound 17 formulation in obese mice. In kind it is in vivo, mice (C57BL/6). Conditions: high-fat diet obese C57BL/6 mice; Compound 17 300 to 1000 nmol/kg oral daily 3 weeks; CDC 6.8, UDC 13.6, PG 13.6 mg/mL; FIGS. 11 to 13. The method, then:
After oral administration of a formulation containing a large physiologically active substance (Compound 17) and excipients to mice, changes in mouse body weight and anti-diabetic efficacy were confirmed. Specifically, the administered dose of Compound 17 used 300 to 1000 nmol/kg, and the excipient concentrations in the administered formulation used CDC 6.8 mg/mL, UDC 13.6 mg/mL, and PG 13.6 mg/mL. The vehicle used 0.02% polysorbate 80 in 10 mM PBS (pH 7.4). Obese mice were induced by feeding high-fat diet to 6-week-old male mice (C57BL/6) for 16 weeks; then weight changes were confirmed by oral administration of the GLP-1/Glucagon receptor dual agonist (Compound 17), which combines biotin and fatty acid moieties, every day for 3 weeks using a bile acid absorption accelerator formulation.

Turning to “35: Amylin, SEQ No. 17: RCNTATCATQRLADFLRHSSNNFGAIPSSTNVGSKTY; K35: Lys-B1 (K*) (RCNTATCATQRLADFLRHSSNNFGAIPSSTNVGS[Lys‑B1]TY; ends and bridges not checked) [Compound 35]”, the “body weight change after 24 hours” value in data set [1] is given as “weight loss was confirmed”.
Regarding “33: Amylin, SEQ No. 16: KCNTATCATQRLADFLRHSSNNFGAIPSSTNVGSRTY; K1: αLys-EG2-Glu-C18 (*K); K1: Lys-B1 (K*) ({C18-Glu-EG2}-[Lys‑B1]CNTATCATQRLADFLRHSSNNFGAIPSSTNVGSRTY; not fully specified; ends and bridges not checked) [Compound 33]”, in data set [1], the “body weight change after 24 hours” value is given as “weight loss was confirmed”.
As for “30: Amylin, SEQ No. 15: KCNTATCATQRLADFLRHSSPNFGAIPSSTNVGSRTY; K1: αLys-EG2-Glu-C18 (*K); K1: Lys-B1 (K*) ({C18-Glu-EG2}-[Lys‑B1]CNTATCATQRLADFLRHSSPNFGAIPSSTNVGSRTY; not fully specified; ends and bridges not checked) [Compound 30]”, in data set [1], the “body weight change after 24 hours” value is given as “weight loss was confirmed”.
“29: Amylin, SEQ No. 15: KCNTATCATQRLADFLRHSSPNFGAIPSSTNVGSRTY; K1: Lys-B1 (K*) ([Lys‑B1]CNTATCATQRLADFLRHSSPNFGAIPSSTNVGSRTY; ends and bridges not checked) [Compound 29]”: the “body weight change after 24 hours” value in data set [1] is reported as “weight loss was confirmed”.
In the case of `C[C@H](CCC(=O)O)[C@H]1CC[C@H]2[C@@H]3[C@H](O)C[C@@H]4C[C@H](O)CC[C@]4(C)[C@H]3CC[C@]12C` [CDC, Chenodeoxycholic acid or its salt], the “cytotoxicity (cell viability)” value in the data set on Caco-2 cells is “similar”. Further, the “effect of improving the permeability of large physiologically active substances” value in the data set on Caco-2 cell monolayer [2] is on record as “had an effect of improving the permeability”. Besides, in the data set on Caco-2 cell monolayer [3], the “effect on paracellular (FD4) and transcellular (metoprolol) transport” value was “promotes both paracellular transport and transcellular transport”.
For the compound `C[C@H](CCC(=O)O)[C@H]1CC[C@H]2[C@@H]3[C@@H](O)C[C@@H]4C[C@H](O)CC[C@]4(C)[C@H]3CC[C@]12C` [UDC, Ursodeoxycholic acid or its salt], the “cytotoxicity (cell viability)” value with Caco-2 cells is given as “least cytotoxicity”. Also, the “tight junction openness according to the change in TEER value” in data set [4] was “non-tight junction openness”. Besides, the “effect on paracellular (FD4) and transcellular (metoprolol) transport” value in the data set with Caco-2 cell monolayer [3] was “no enhancing effect on the two transport mechanisms”.
In data set [5], `CC[C@H](C)[C@H](NC(=O)[C@H](CCC(=O)O)NC(=O)[C@H](CO)NC(=O)[C@@H](NC(=O)[C@@H](N)CO)C(C)C)C(=O)N[C@@H](CCC(N)=O)C(=O)N[C@@H](CC(C)C)C(=O)N[C@@H](CCSC)C(=O)N[C@@H](Cc1cnc[nH]1)C(=O)N[C@@H](CC(N)=O)C(=O)N[C@@H](CC(C)C)C(=O)NCC(=O)N[C@@H](CCCCN)C(=O)N[C@@H](Cc1cnc[nH]1)C(=O)N[C@@H](CC(C)C)C(=O)N[C@@H](CC(N)=O)C(=O)N[C@@H](CO)C(=O)N[C@@H](CCSC)C(=O)N[C@@H](CCC(=O)O)C(=O)N[C@@H](CCCN=C(N)N)C(=O)N[C@H](C(=O)N[C@@H](CCC(=O)O)C(=O)N[C@@H](Cc1c[nH]c2ccccc12)C(=O)N[C@@H](CC(C)C)C(=O)N[C@@H](CCCN=C(N)N)C(=O)N[C@@H](CCCCN)C(=O)N[C@@H](CCCCN)C(=O)N[C@@H](CC(C)C)C(=O)N[C@@H](CCC(N)=O)C(=O)N[C@@H](CC(=O)O)C(=O)N[C@H](C(=O)N[C@@H](Cc1cnc[nH]1)C(=O)N[C@@H](CC(N)=O)C(=O)N[C@@H](Cc1ccccc1)C(=O)O)C(C)C)C(C)C` [Compound 23] registered a peak concentration (Cmax) of 30 ng/mL.
Take “26: Amylin, SEQ No. 14: KCNTATCATQRLANFLVHSSNNFGPILPPTNVGSNTY; K1: Lys-B1 (K*) ([Lys‑B1]CNTATCATQRLANFLVHSSNNFGPILPPTNVGSNTY; ends and bridges not checked) [Compound 26]”: the “body weight change after 24 hours” value in data set [1] is listed as “weight loss was confirmed”.
As to “36: Amylin, SEQ No. 17: RCNTATCATQRLADFLRHSSNNFGAIPSSTNVGSKTY; R1: αArg-EG2-Glu-C18 (*R); K35: Lys-B1 (K*) ({C18-Glu-EG2}-RCNTATCATQRLADFLRHSSNNFGAIPSSTNVGSKTY; not fully specified (some residues); ends and bridges not checked) [Compound 36]”, the “body weight change after 24 hours” value in data set [1] is “weight loss was confirmed”.
On the same count and under the same terms, with “32: Amylin, SEQ No. 16: KCNTATCATQRLADFLRHSSNNFGAIPSSTNVGSRTY; K1: Lys-B1 (K*) ([Lys‑B1]CNTATCATQRLADFLRHSSNNFGAIPSSTNVGSRTY; ends and bridges not checked) [Compound 32]” the entry was “weight loss was confirmed”; with “27: Amylin, SEQ No. 14: KCNTATCATQRLANFLVHSSNNFGPILPPTNVGSNTY; K1: αLys-EG2-Glu-C18 (*K); K1: Lys-B1 (K*) ({C18-Glu-EG2}-[Lys‑B1]CNTATCATQRLANFLVHSSNNFGPILPPTNVGSNTY; not fully specified; ends and bridges not checked) [Compound 27]”, “weight loss was confirmed”.
As to `C[C@H](CCC(=O)O)[C@H]1CC[C@H]2[C@@H]3CC[C@@H]4C[C@H](O)CC[C@]4(C)[C@H]3C[C@H](O)[C@]12C` [DC, Deoxycholic acid or its salt], the “cytotoxicity (cell viability)” value with Caco-2 cells is listed as “similar”.
For “Compound 17: GLP-1/GCGRA, SEQ No. 8: H-Aib-QGTFTSDYSKYLDEQAAKEFVQWLMNTK; (Lactam) between E16 and K20; K12: Lys-B1 (K*); K30: Lys-EG2-Glu-C18 (K*) (H-H[Aib]QGTFTSDYSKYLDEQAAKEFVQWLMNTK([EG2-Glu-C18]); lactam 16-20; not fully specified (residue 12); reading uncertain)”, in data set [6], the anti-diabetic efficacy result is given as “anti-diabetic effect”, the body weight change entry is reported as “weight loss” and the feed intake entry was “reduction of feed intake”.
Take `CCCOC(=O)c1cc(O)c(O)c(O)c1` [PG, Propyl gallate]: the “tight junction openness according to the change in TEER value” in data set [4] is given as “non-tight junction openness”.
